Columns and labels:
C2C12 cells = assay: Metabolic flux analysis: oxygen consumption rate (OCR) in Sea Horse XF96 under H2O2 stress; assay type: cell-based, mouse; conditions: for OCR over time, bioenergetics: 1 μM and 10 μM, treated 4 hours prior to 1 mM H2O2 stress; for OCR corrected for antimycin A, mitochondrial bioenergetics: 10 μM; for OCR corrected for antimycin A, mitochondrial bioenergetics / OCR upon the addition of FCCP (FIG. 1A) / OCR upon the addition of FCCP: 4 hours; for OCR corrected for antimycin A, mitochondrial bioenergetics / OCR upon the addition of FCCP: 1 mM H2O2 stress; for OCR upon the addition of FCCP (FIG. 1A): 500 μM H2O2 stress
Procedure: C2C12 cells were cultured in Sea Horse XF96 plates according to the manufacturer's instructions and established protocols (see www.seahorsebio.com/products/instruments/selection.php; Yao et al., PROC. NATL. ACAD. SCI. USA (2009) 106, p. 14670-14675).
On the day of the assay, cells were incubated with the compounds of the invention for either 4 hours or 24 hours. The short 4 hour incubation with the test compounds allowed one to evaluate for improvement of mitochondrial bioenergetics under the “scavengers” conditions (i.e. conditions in which the test compounds could effectively scavenge the various reactive oxygen species). The longer 24 hour incubation with the test compounds allowed one to evaluate for improvement of mitochondrial bioenergetics under the Nrf2 conditions (i.e. conditions in which the test compounds could effectively activate the Nrf2 antioxidant pathway in order to cope with the various reactive oxygen species). For these assays, H2O2 was used as the source of reactive oxygen species. Under the general stress test, cells were then exposed to either 500 μM of H2O2 or 1 mM of H2O2 for 4 hours before the evaluation in the Sea Horse system. Baseline measurements of the oxygen consumption rate (OCR) were taken before sequential injections of the various mitochondrial inhibitors. Readings were taken after addition of the mitochondrial inhibitor before injection of the subsequent inhibitors. The mitochondrial inhibitors that were used included oligomycin (1 μM), FCCP (1 μM) and Antimycin A (1 μM). Oligomycin is a known inhibitor ATP synthase; addition of this reagent essentially stopped the synthesis of ATP. Antimycin A inhibits the electron transport chain in the mitochondria. FCCP essentially uncouples the mitochondria and allows one to measure the maximum respiration. Measurements of the OCR following the addition of FCCP allows one to assess the mitochondrial content. An improvement in the OCR following the addition of FCCP is a reflection of the improvement in bioenergetics, when the proper control groups were put in place. The OCR were automatically calculated and recorded by the Sea Horse XF96 software. Ten measurements were taken at each of the indicated time points. Statistical significance in different treatment groups were determined by an ANOVA, followed by a Newman-Keuls post hoc analysis. Compounds I-1, I-3 and 1-5 were evaluated for mitochondrial bioenergetics under various conditions.

[1] = test system: human epithelial cells from CF patients with homozygous ΔF508 mutation; conditions: 250 μM; cited from earlier work
[2] = 5K U/mL catalase positive control

Compound: CC/C=C\C/C=C\C/C=C\C/C=C\C/C=C\C/C=C\CCC(=O)N[C@@H](CSSC(C)(C)CNC(=O)c1cccnc1)C(=O)O [I-3, N-((4Z,7Z,10Z,13Z,16Z,19Z)-docosa-4,7,10,13,16,19-hexaenoyl)-S-((2-methyl-1-(nicotinamido)propan-2-yl)thio)-L-cysteine]
- OCR over time, bioenergetics (C2C12 cells): dose-dependent increase in bioenergetics
- OCR corrected for antimycin A, mitochondrial bioenergetics (C2C12 cells): significant improvement in mitochondrial bioenergetics, essentially comparable to the positive control NAC

Compound: CC(=O)N[C@@H](CS)C(=O)O [NAC, N-acetyl cysteine, reference compound]
- OCR upon the addition of FCCP (FIG. 1A) (C2C12 cells; 5 mM NAC positive control): significant restoration of the OCR upon the addition of FCCP
- OCR upon the addition of FCCP (C2C12 cells; 5 mM NAC positive control): increase in the OCR upon the addition of FCCP; almost to the same level observed with the normal control groups

Compound: CC/C=C\C/C=C\C/C=C\C/C=C\C/C=C\C/C=C\CCC(=O)N[C@@H](CSSC(C)(C)CNC(=O)CC(O)C[N+](C)(C)C)C(N)=O (stereo partly drawn) [I-5, 4-((2-(((R)-3-amino-2-((4Z,7Z,10Z,13Z,16Z,19Z)-docosa-4,7,10,13,16,19-hexaenamido)-3-oxopropyl)disulfanyl)-2-methylpropyl)amino)-2-hydroxy-N,N,N-trimethyl-4-oxobutan-1-aminium]
- OCR over time, bioenergetics (C2C12 cells): dose-dependent increase in bioenergetics
- OCR corrected for antimycin A, mitochondrial bioenergetics (C2C12 cells): significant improvement in mitochondrial bioenergetics, essentially comparable to the two positive control arms, catalase or NAC

Compound: catalase [reference compound]
- OCR upon the addition of FCCP (FIG. 1A) (C2C12 cells; [2]): significant restoration of the OCR upon the addition of FCCP
- OCR upon the addition of FCCP (C2C12 cells; [2]): increase in the OCR upon the addition of FCCP; almost to the same level observed with the normal control groups

Compound: NCCSSCCN [cystamine]
- CFTR at the plasma membrane [1]: restoration of the CFTR to the plasma membrane
- autophagy [1]: up-regulation of autophagy

Source: patent US20170342046A1, “Fatty Acid Cysteine-Based Conjugates and Their Use in Treating Medical Disorders” (Catabasis Pharmaceuticals, Inc., priority 2016, published 2017)
